Data: paper PMC8434491, “Targeting the Integrated Stress Response Kinase GCN2 to Modulate Retroviral Integration” (Molecules, 2021)
Counter-ions that a name gives are not always drawn. Like-named read-outs stand apart in the source and are kept apart here. Blank lines part the entries; values can stand above or below the compound they belong to.

Columns and labels:
IN–GCN2 interaction = target: T1, IN–GCN2 interaction (UniProt P04585+Q9P2K8); assay: IN–GCN2 interaction assay (AlphaLISA); type: binding, HIV-1 IN / human GCN2; conditions: for effect on the IN–GCN2 interaction: A-92: over a wide concentration range, MK-2048: nanomolar or low micromolar ranges
T1 construct: expressed as a truncated version (192-1024) in fusion after a glutathione S-transferase tag; Recombinant full-length IN was expressed in E. coli BL21 pLys; purchased SignalChem (GCN2); IN made in house in E. coli BL21 pLys E12-11G; host or cells: E. coli BL21 pLys (IN)
From the text: We developed an in vitro plate-based assay to monitor the interaction between GCN2 and IN using the AlphaLISA technology (Figure 1). Taking advantage of the tags present on each recombinant protein (6xHis for IN prepared “in-house”, and GST for GCN2 commercially available), we used specific beads that fluoresce only when they are in close proximity (<200 nm). The signal obtained (light count) is directly proportional to the binding of IN to GCN2 (homogenous solution assay at steady state).
IN–GCN2 interaction assay. Protein–protein interactions were monitored using the AlphaLISA technology (Perkin Elmer) taking advantage of the GST and 6xHis tags of GCN2 and IN, respectively. Accordingly, AlphaScreen GSH Donor beads and AlphaLISA Nickel Acceptor beads were used (Perkin Elmer). Reactions were carried out at room temperature by incubating GCN2 with drugs or DMSO for 5 min before addition of AlphaLISA Nickel Acceptor beads. After 5 min, IN was added to the reaction mixture and incubated for 20 min before adding the AlphaScreen GSH Donor beads. This interaction assay was performed in conditions similar to the in vitro phosphorylation assay, already described, using 25 nM GCN2 and 700 nM (except indicated otherwise) in a reaction buffer containing 50 mM Tris-HCl pH 7.5, 40 mM NaCl, 1 mM dithiothreitol (DTT), 0.05% Tween 20, 0.1% bovine serum albumin (BSA), 10 µg/mL of each donor and acceptor beads. Alpha signal was measured using an EnSight plate reader (Perkin Elmer) 120 min after the addition of the latest component of the reaction (unless indicated otherwise).

GCN2 = target: T2, GCN2 (Homo sapiens, UniProt Q9P2K8); assay: In vitro phosphorylation assay: GCN2 activation (auto-phosphorylation); type: biochemical; conditions: for decrease in GCN2 auto-phosphorylation: single dose of 100 µM, compared to DMSO
T2 construct: expressed as a truncated version (192-1024) in fusion after a glutathione S-transferase tag; purchased SignalChem E12-11G
T2 sequence (Q9P2K8 192-1024): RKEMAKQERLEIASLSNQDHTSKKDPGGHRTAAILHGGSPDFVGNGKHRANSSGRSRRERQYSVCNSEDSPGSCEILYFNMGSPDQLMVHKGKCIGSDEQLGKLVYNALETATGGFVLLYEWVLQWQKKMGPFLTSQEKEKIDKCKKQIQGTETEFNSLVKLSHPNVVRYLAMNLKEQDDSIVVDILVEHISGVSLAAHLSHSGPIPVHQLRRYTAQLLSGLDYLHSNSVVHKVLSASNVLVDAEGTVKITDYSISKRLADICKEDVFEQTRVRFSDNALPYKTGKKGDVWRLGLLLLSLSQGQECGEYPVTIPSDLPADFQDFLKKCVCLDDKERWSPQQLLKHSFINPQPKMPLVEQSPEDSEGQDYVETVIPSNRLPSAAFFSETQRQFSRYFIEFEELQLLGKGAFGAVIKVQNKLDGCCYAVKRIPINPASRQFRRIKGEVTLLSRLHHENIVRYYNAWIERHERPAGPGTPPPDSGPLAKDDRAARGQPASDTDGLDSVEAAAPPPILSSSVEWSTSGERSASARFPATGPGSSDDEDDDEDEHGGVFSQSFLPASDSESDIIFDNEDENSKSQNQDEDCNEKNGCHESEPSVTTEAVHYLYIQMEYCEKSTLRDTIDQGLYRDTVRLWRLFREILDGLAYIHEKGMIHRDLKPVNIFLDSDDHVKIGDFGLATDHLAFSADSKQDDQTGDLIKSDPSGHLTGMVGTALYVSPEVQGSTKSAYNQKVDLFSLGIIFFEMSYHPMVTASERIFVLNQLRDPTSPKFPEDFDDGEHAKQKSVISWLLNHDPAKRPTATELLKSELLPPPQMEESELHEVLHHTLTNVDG
From the text: Enzymes. GCN2 was purchased from SignalChem (EIF2AK4, cat. #E12-11G). This human recombinant protein was expressed as a truncated version (192-1024) in fusion after a glutathione S-transferase tag (approximate molecular weight of 132 kDa). Recombinant full-length IN was expressed in E. coli BL21 pLys (IPTG induction) and purified on a nickel chelating column, as described. Integrity and purity were checked by direct Coomassie coloration of elution fractions on SDS-PAGE before dialysis to remove imidazole. Protein concentration was determined using a NanoDrop 2000 with the following parameters: molecular weight: 34 kDa, extinction coefficient ϵ = 50,460 mol^−1cm^−1L.
(§1) In vitro phosphorylation assay. Phosphorylation of IN (700 nM) was carried out using 25 nM of GCN2 in a reaction buffer containing 10 mM Tris-HCl pH 7.5, 50 mM NaCl, 15 mM MgCl2, 7.5 mM MnCl2, 10 mM DTT, 0.005% Nonidet P-40, 100 µM ATP, 50 µCi/µL of [γ-^32P]-ATP (3000 Ci/mmole, Perkin Elmer). Reactions (20 µL) were stopped after a 60 min incubation at 30 °C by adding 10 µL of loading buffer [80 mM Tris-HCl pH 6.8, 100 mM DTT, 10% glycerol, 1% sodium dodecyl sulfate (SDS) and 0.05% bromophenol blue]. Samples were then loaded onto a 10% denaturating SDS-PAGE. After protein separation (120 V for 120 min) the gel was stained using Coomassie Brilliant Blue R-250. Autoradiography was performed using an imaging plate (Fujifilm, Tokyo, Japan) and images were obtained with a FLA-5000 Imaging System (Fujifilm).

HIV-1 IN [1] = target: T3, HIV-1 IN (Human immunodeficiency virus type 1 group M subtype B, UniProt P04585); assay: Integrase reaction, strand transfer (ST), gel-based; type: biochemical
T3 construct: Recombinant full-length IN was expressed in E. coli BL21 pLys; 6xHis; made in house; host or cells: E. coli BL21 pLys
Protocol: (§2) Oligonucleotides. Oligonucleotides were purchased from Integrated DNA Technologies, Inc. (Leuven, Belgium), purified on polyacrylamide gel through electro-elution and dissolve in water. 19T ([…]) and 21B ([…]) correspond to the cleaved and non-cleaved strands specifically recognized by HIV-1 IN. Radiolabeling of 19T at the 5′-end was performed with [γ-^32P] ATP (Perkin-Elmer, Villebon-sur-Yvette, France) using T4 polynucleotide kinase (Promega, Charbonnières-les-Bains, France), according to the manufacturers’ instructions. Unincorporated isotopes were removed using illustra microspin G-25 Columns (Cytiva life sciences, Amersham, Little Chalfont, United Kingdom). DNA duplexes were annealed using an equimolar ratio of the complementary strand 21B, heating to 95 °C, and slow cooling to room temperature.
Integrase reactions. IN reactions were carried out by adding molecules or an equivalent volume of 100% DMSO (dimethyl sulfoxide, used as the drug solvent) to a mixture of 20 nM duplex DNA (19T/21B) and 400 nM IN in 50 mM MOPS pH 7.2, 7.5 mM MgCl2, and 14 mM 2-mercaptoethanol. Reactions were performed at 37 °C for 1 h and quenched by addition of an equal volume (10 µL) of loading buffer [formamide containing 1% SDS (sodium dodecyl sulfate), 0.25% bromophenol blue, and xylene cyanol]. Reaction products were separated in 16% polyacrylamide denaturing sequencing gels. Dried gels were visualized using a FLA-5000 imaging system (Fujifilm). Densitometric analyses were performed using the ImageQuant 5.1 software (GE Healthcare, Chicago, IL, USA) and data analyzed using Prism 6.05 software (GraphPad, San Diego, CA, USA).

HIV-1 IN [2] = target: T3, HIV-1 IN; assay: Integrase reaction, 3'-processing (3'-P), gel-based; type: biochemical; conditions: gel-based assay
Protocol: as §2
Integrase reactions. IN reactions were carried out by adding molecules or an equivalent volume of 100% DMSO (dimethyl sulfoxide, used as the drug solvent) to a mixture of 20 nM duplex DNA (19T/21B) and 400 nM IN in 50 mM MOPS pH 7.2, 7.5 mM MgCl2, and 14 mM 2-mercaptoethanol. […] Densitometric analyses were performed using the ImageQuant 5.1 software (GE Healthcare, Chicago, IL, USA) and data analyzed using Prism 6.05 software (GraphPad, San Diego, CA, USA).

[3] = target: T4, IN's phosphorylation catalyzed by GCN2 (Homo sapiens, UniProt Q9P2K8); assay: In vitro phosphorylation assay: phosphorylation of IN catalyzed by GCN2; type: biochemical, human GCN2 / HIV-1 IN; conditions: for inhibition at 100 µM: read-out: decrease (inhibition) in IN phosphorylation; for concentration giving full inhibition of IN phosphorylation: serial dilutions from 300 µM to 137 nM
T4 construct: expressed as a truncated version (192-1024) in fusion after a glutathione S-transferase tag; purchased SignalChem (GCN2); IN made in house in E. coli BL21 pLys E12-11G; host or cells: E. coli BL21 pLys (IN)
T4 sequence (Q9P2K8 192-1024): T2 sequence (Q9P2K8 192-1024)
Protocol: Enzymes. GCN2 was purchased from SignalChem (EIF2AK4, cat. #E12-11G). […] Recombinant full-length IN was expressed in E. coli BL21 pLys (IPTG induction) and purified on a nickel chelating column, as described. Integrity and purity were checked by direct Coomassie coloration of elution fractions on SDS-PAGE before dialysis to remove imidazole.
as §1, with “Phosphorylation of IN (700 nM) was carried out using 25 nM of GCN2 in a reaction buffer containing 10 mM Tris-HCl pH 7.5, 50 mM NaCl, 15 mM MgCl2, 7.5 mM MnCl2, 10 mM DTT, 0.005% Nonidet P-40, 100 µM ATP, 50 µCi/µL of [γ-^32P]-ATP (3000 Ci/mmole, Perkin Elmer).” left out

[4] = 100 µM, dose-response experiment
[5] = single dose of 100 µM, compared to DMSO
[6] = pilot screen, single dose of 100 µM, read-out: inhibition of the IN–GCN2 interaction signal
[7] = pilot screen, single dose of 100 µM

SMILES: c1nn(C2CCOCC2)cc1Nc1ncc2nnn(-c3ccc4cn[nH]c4c3)c2n1 [A-92]
- doses with a slight impact on IN–GCN2 interaction (IN–GCN2 interaction): above 333 µM
- inhibition at 1000 µM (IN–GCN2 interaction; 1 mM): < 20%
- effect on the IN–GCN2 interaction (IN–GCN2 interaction): did not affect
- IC50 (GCN2; read-out: apparent IC50, GCN2's activation (autophosphorylation)): ~200 nM

SMILES: CCN1C[C@@H](C)n2c(c(O)c3c(=O)n(Cc4ccc(F)c(Cl)c4)nc(C(=O)NC)c32)C1=O [MK-2048]
- effect on the IN–GCN2 interaction (IN–GCN2 interaction): did not affect
- IC50 (IN–GCN2 interaction; read-out: apparent IC50, IN–GCN2 interaction): ~100000 nM
- IC50 (HIV-1 IN [1]; gel-based assay, read-out: apparent IC50, inhibition of ST): 20 nM
- IC50 (HIV-1 IN [2]): 2000 nM

SMILES: Clc1ccc(C(c2ccccc2Cl)C(Cl)Cl)cc1 (stereo not shown) [NSC38721, Mitotane]
- value (signal) at the highest dose in the dose-response experiment (IN–GCN2 interaction; [4]): 248.5%
- increase in signal (IN–GCN2 interaction) (IN–GCN2 interaction; pilot screen, 100 µM, compared to the DMSO control): 299.9%
- inhibition at 100 µM [3, 5]: ~30%
- effect on IN strand transfer activity (HIV-1 IN [1]; serial dilutions from 100 µM to 45.7 nM, only IN present): inactive

SMILES: CC1=C(/C=C/C(C)=C/C=C/C(C)=C/C(=O)O)C(C)(C)CCC1 [NSC122758, Tretinoin]
- value (signal) at the highest dose in the dose-response experiment (IN–GCN2 interaction; [4]): 10.5%
- inhibition at 100 µM (IN–GCN2 interaction; 100 µM, dose-response experiment, corresponding to the printed signal, read-out: inhibition at the highest dose in the dose-response experiment): 89.5%
- inhibition at 100 µM (IN–GCN2 interaction; [6]): 87.3%
- decrease in GCN2 auto-phosphorylation (GCN2): no impact
- decrease (inhibition) in IN phosphorylation [3, 5]: no impact

- decrease in GCN2 auto-phosphorylation (GCN2): no effect
- inhibition at 100 µM [3, 5]: 40%
SMILES: Cc1cn(-c2cc(NC(=O)c3ccc(C)c(Nc4nccc(-c5cccnc5)n4)c3)cc(C(F)(F)F)c2)cn1 [NSC747599, Nilotinib]

- concentration giving full inhibition of GCN2 auto-phosphorylation (GCN2; serial dilutions from 300 µM to 137 nM): 300 µM
- decrease in GCN2 auto-phosphorylation (GCN2): ~80%
- concentration giving full inhibition of IN phosphorylation [3]: 300 µM
- decrease (inhibition) in IN phosphorylation [3, 5]: inhibited
SMILES: CNCc1ccc(-c2[nH]c3cc(F)cc4c3c2CCNC4=O)cc1 [NSC756644, Rucaparib phosphate]

SMILES: Cc1ccc(C(=O)Nc2ccc(CN3CCN(C)CC3)c(C(F)(F)F)c2)cc1C#Cc1cnc2cccnn12 [NSC758487, Ponatinib]
- decrease in GCN2 auto-phosphorylation (GCN2): around 35%
- inhibition at 100 µM [3]: > 80%
- concentration giving full inhibition of IN phosphorylation [3]: without reaching full inhibition

SMILES: CC1(C)CCC(CN2CCN(c3ccc(C(=O)NS(=O)(=O)c4ccc(NCC5CCOCC5)c([N+](=O)[O-])c4)c(Oc4cnc5[nH]ccc5c4)c3)CC2)=C(c2ccc(Cl)cc2)C1 [NSC766270, Venetoclax]
- inhibition at 100 µM (IN–GCN2 interaction; [6]): 93.6%
- decrease in GCN2 auto-phosphorylation (GCN2): no impact
- decrease (inhibition) in IN phosphorylation [3, 5]: no impact

SMILES: C=CC(=O)Nc1cc(Nc2nccc(-c3cn(C)c4ccccc34)n2)c(OC)cc1N(C)CCN(C)C [NSC779217, Osimertinib]
- inhibition at 100 µM (IN–GCN2 interaction; [6]): 83.5%
- decrease in GCN2 auto-phosphorylation (GCN2): around 20%
- inhibition at 100 µM [3, 5]: ~20%

SMILES: CCc1c2c(nc3ccc(OC(=O)N4CCC(N5CCCCC5)CC4)cc13)-c1cc3c(c(=O)n1C2)COC(=O)[C@]3(O)CC [irinotecan, Irinotecan hydrochloride]
- inhibition of the IN–GCN2 interaction signal (IN–GCN2 interaction; [7]): no effect

SMILES: CC[C@@]1(O)C(=O)OCc2c1cc1n(c2=O)Cc2cc3c(CN(C)C)c(O)ccc3nc2-1 [topotecan, Topotecan hydrochloride]
- inhibition of the IN–GCN2 interaction signal (IN–GCN2 interaction; [7]): no effect
